The supplement of paper PMC10627819

Assays:
S. aureus Newman = experiment: Bliss interaction score (quartile over a dose matrix) (fitness difference); higher = more antagonism (negative = synergy)
In short: (§1)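 The Bliss score is observed fitness minus expected fitness, where the expected value is the product of single-drug fitness values inferred from combination data. Fitness is OD595 at entry into stationary phase normalised to the plate's robust no-drug mean and capped at 1. Scores are reported as quartiles spanning technical, biological and donor/recipient replicates.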

B. subtilis 168 [1] = experiment: as above
In short: as §1

S. pneumoniae D39V [2] = experiment: as above
In short: as §1

S. aureus DSM 20231 = experiment: as above
In short: as §1

S. pneumoniae D39V [3] = experiment: fitness (endpoint OD595 vs no drug) (fraction); higher = more growth
In short: (§2)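 With the first reading as background, OD595 was measured every 30 min for 14 h in 384-well plates kept at 37 °C and inoculated at OD595 0.01. TSB, LB Lennox or CY was the medium. Fitness is the optical density at the transition into stationary phase divided by the robust mean of no-drug control wells, with a cap of 1.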

B. subtilis 168 [4] = experiment: as above
In short: as §2
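Throughout, for Bliss interaction score (quartile over a dose matrix): first quartile when negative (synergy) and third quartile when positive (antagonism).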
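Throughout, for fitness (endpoint OD595 vs no drug): OD595 on entry to stationary phase over no-drug wells; at most 1.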

O=C1CN(/N=C/c2ccc([N+](=O)[O-])o2)C(=O)N1 [Nitrofurantoin] + CN[C@@H]1[C@H](O)[C@H](NC)[C@H]2O[C@@]3(O)C(=O)C[C@@H](C)O[C@H]3O[C@@H]2[C@H]1O [Spectinomycin]
Settings | Bliss interaction score
B. subtilis 168 [1] | -0.0552
S. aureus DSM 20231 | -0.0743
S. aureus Newman | -0.0511
S. pneumoniae D39V [2] | 0.0652

fitness, S. pneumoniae D39V [3]
Settings | partner 4 µg/mL | partner 8 µg/mL | partner 16 µg/mL
first compound 1.285 µg/mL | 0.96 | 0.889 | 0.829
first compound 2.57 µg/mL | 0.935 | 0.917 | 0.829

fitness, S. pneumoniae D39V [3], one replicate
Settings | first compound 2 µg/mL | first compound 4 µg/mL | first compound 5.14 µg/mL | first compound 8 µg/mL
partner 4 µg/mL | 0.966 | 0.948 | 0.859 | 0.895
partner 8 µg/mL | 0.892 | 0.864 | 0.865 | 0.879
partner 16 µg/mL | – | – | 0.793 | –

COc1c(N2C[C@@H]3CCCN[C@@H]3C2)c(F)cc2c(=O)c(C(=O)O)cn(C3CC3)c12 [Moxifloxacin] + CO[C@@H]1[C@@H](OC(N)=O)[C@@H](O)[C@H](Oc2ccc3c(O)c(NC(=O)c4ccc(O)c(CC=C(C)C)c4)c(=O)oc3c2C)OC1(C)C [Novobiocin]
Settings | Bliss interaction score
B. subtilis 168 [1] | -0.0346
S. aureus DSM 20231 | -0.0723
S. aureus Newman | -0.113
S. pneumoniae D39V [2] | 0.0943

fitness, B. subtilis 168 [4]
Settings | first compound 0.0312 µg/mL | first compound 0.0625 µg/mL | first compound 0.125 µg/mL | first compound 2 µg/mL | first compound 4 µg/mL | first compound 8 µg/mL
partner 0.0125 µg/mL | – | – | – | 0.0294 | 0.0275 | 0.0124
partner 0.025 µg/mL | – | – | – | 0.016 | 0.0146 | 0.0125
partner 0.05 µg/mL | 0.0425 | 0.0373 | 0.0299 | 0.0168 | 0.0053 | 0.0129
partner 0.1 µg/mL | 0.0335 | 0.0227 | 0.0176 | – | – | –
partner 0.2 µg/mL | 0.0331 | 0.0211 | 0.0159 | – | – | –

fitness, B. subtilis 168 [4], one replicate
Settings | first compound 0.0312 µg/mL | first compound 0.0625 µg/mL | first compound 0.125 µg/mL
partner 0.125 µg/mL | 0.0427 | 0.0166 | 0.0119
partner 0.25 µg/mL | 0.0377 | 0.0432 | 0.0101
partner 0.5 µg/mL | 0.0342 | 0.0161 | 0.011
